Structures are written as SMILES. Calls of active or inactive are those of the source.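 The calls were made as follows: active = mean IC50 for reducing PEG3 promoter reporter signal at or below a set limit, with IC50 above the limit in both counter screens; inactive = the rest, including counter screen hits.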

The test system of test [1] is PEG-3. The test is described as follows: Peg3 promoter luciferase inhibitors, potency, dose response, cell-based, HeLa, CREF/GAPDH counter-screen panel (AID 624167). As to conditions: HeLa PEG-Prom luciferase reporter, overnight, CREF/GAPDH counter-screens. (The purpose of a counterscreen is to sort out artefacts and off-target activity.)
Test [2] addresses PEG-3 (UniProt Q6IN02). The description is as above. The conditions noted are these: HeLa PEG-Prom luciferase reporter, overnight, CREF/GAPDH counter-screens, mean of runs. (Reporter assays use an easily measured gene product as a stand-in for the process of interest.)
[3] abbreviates: run 1, dose range 1, individual replicate IC50 per panel.
[4] abbreviates: run 2, dose range 1, individual replicate IC50 per panel.

Sequence of PEG-3 (UniProt Q6IN02) (Q6IN02 whole entry, looked up): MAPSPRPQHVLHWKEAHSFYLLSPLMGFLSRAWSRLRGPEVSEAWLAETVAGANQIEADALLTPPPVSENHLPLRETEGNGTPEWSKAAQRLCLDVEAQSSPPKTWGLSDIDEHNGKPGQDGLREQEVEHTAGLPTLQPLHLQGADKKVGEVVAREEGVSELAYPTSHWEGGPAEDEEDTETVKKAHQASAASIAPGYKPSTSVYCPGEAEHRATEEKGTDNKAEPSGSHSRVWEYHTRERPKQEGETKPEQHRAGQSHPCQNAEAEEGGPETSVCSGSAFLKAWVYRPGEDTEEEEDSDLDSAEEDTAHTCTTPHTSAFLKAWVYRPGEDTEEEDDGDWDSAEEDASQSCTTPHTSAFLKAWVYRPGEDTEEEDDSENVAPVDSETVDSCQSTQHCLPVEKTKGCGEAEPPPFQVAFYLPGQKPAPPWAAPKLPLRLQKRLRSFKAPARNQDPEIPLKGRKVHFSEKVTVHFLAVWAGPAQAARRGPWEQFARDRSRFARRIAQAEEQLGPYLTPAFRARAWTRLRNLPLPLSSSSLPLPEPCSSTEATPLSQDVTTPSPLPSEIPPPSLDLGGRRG

By IC50 is commonly meant the concentration at which inhibition is half-maximal. On to `CCC(=O)NC(c1cccs1)c1cc([N+](=O)[O-])c2cccnc2c1O` (stereo not drawn), for which the IC50 with PEG-3 [1] (setting [3]) was 12.4 µM; in the test with PEG-3 [1] (setting [4]) it was 11.7 µM; on PEG-3 [2], 12.1 µM.
`Cc1cc(C(=O)COC(=O)C2=COCCO2)c(C)n1-c1ccccc1`: the IC50 was 11.1 µM with PEG-3 [1] (setting [3]), 12.5 µM in the test on PEG-3 [1] (setting [4]) and 11.8 µM at PEG-3 [2].
Regarding `O=C(NC1=C(NC2CCS(=O)(=O)C2)C(=O)c2ccccc2C1=O)c1ccccc1` (stereo not drawn), the IC50 is 19.1 µM in the test on PEG-3 [1] (setting [3]), 18.7 µM in the test with PEG-3 [1] (setting [4]) and 18.9 µM at PEG-3 [2].
`N#Cc1ccc(Cn2cc(C=O)c3ccccc32)cc1`: the half-inhibitory concentration (IC50) worked out at 31.6 µM in the test on PEG-3 [1] (setting [3]) and 24.6 µM with PEG-3 [1] (setting [4]). The IC50 result on PEG-3 [2] was “inactive”.
For `CC1(C)CC(NCCN2CCN(C3=CC(=C(C#N)C#N)CC(C)(C)C3)CC2)=CC(=C(C#N)C#N)C1`, in that order: above 100 µM, 8.4 µM and “inactive”.
For `CC(C(=O)NC1CCCC1)N(C(=O)Cn1nnc(-c2ccc(F)cc2)n1)c1ccccc1F` (stereo not drawn), in that order: 22.9 µM, 69.9 µM and “inactive”.
As for `O=C(c1ccccc1)N(C(=O)c1ccccc1)c1ncnc2c1C(c1ccccc1)c1c(ccc3ccccc13)O2` (stereo not drawn), the IC50 with PEG-3 [1] (setting [3]) was 4.36 µM; with PEG-3 [1] (setting [4]) it was above 100 µM. Also, at PEG-3 [2], the IC50 entry is “inactive”.
For `Cc1ccc(-n2cc(-c3ccccc3)c3c(N4CCOCC4)ncnc32)cc1`, in that order: 10.8 µM, 25.7 µM and 18.2 µM.
In the same order, the values of `COc1ccc(CC(N)c2csc(NC(=O)Nc3cc(OC)ccc3OC)n2)cc1` (stereo not drawn) are 16.5 µM, 15.6 µM and 16 µM.
In the same order, the values of `CN(Cc1ccccc1)C(=O)c1ccc(Nc2nc(C(N)Cc3ccccc3)cs2)nc1` (stereo not drawn) are 21.8 µM, 14.8 µM and 18.3 µM.
Regarding `COc1cccc2c1C(=N)c1c(O)c3c(c(O)c1C2=O)CC(O)(C(C)=O)CC3OC1CC(N)C(O)C(C)O1` (stereo not drawn), the IC50 in the test with PEG-3 [1] (setting [3]) is 15.7 µM; in the test with PEG-3 [1] (setting [4]) it was 7.56 µM; on PEG-3 [2], 11.6 µM.
For `CC(NC(=O)c1ccc([N+](=O)[O-])o1)C12CC3CC(CC(C3)C1)C2` (stereo not drawn), in that order: 32.3 µM, 14.9 µM and “inactive”.
In the same order, the values of `Cc1ccc(CC2(OCCN(C)C)CCC(C(C)(C)C)CC2)cc1` (stereo not drawn) are 19.1 µM, 14.6 µM and 16.8 µM.
As to `CC1CCCCN1C(=O)c1cccc(NC2=C(Cl)C(=O)N(Cc3ccccc3)C2=O)c1` (stereo not drawn), the values for the IC50 in the test with PEG-3 [1] (setting [3]) and with PEG-3 [1] (setting [4]) were 29.9 µM and 51.8 µM, respectively. For the same compound, the IC50 result at PEG-3 [2] is “inactive”.
In the same order, the values of `CC(C)CC(NS(=O)(=O)OCC(Cl)(Cl)Cl)c1ccccc1` (stereo not drawn) are 47.6 µM, 17.5 µM and “inactive”.
In the same order, the values of `Cc1ccc(S(=O)(=O)CCSC(=N)N)cc1` are 36.6 µM, 42.7 µM and “inactive”.
In the same order, the values of `COc1ccc(-c2cc(-c3ccc(F)cc3)nc(N3CCN(C)CC3)n2)cc1` are 21.6 µM, above 100 µM and “inactive”.
On to `CC(C)CN(C(=O)COC(=O)/C=C/c1ccc(Cl)c(Cl)c1)c1c(N)n(Cc2ccccc2)c(=O)[nH]c1=O`, for which the IC50 is above 100 µM with PEG-3 [1] (setting [3]), above 100 µM in the test with PEG-3 [1] (setting [4]) and > 100 µM (inactive) at PEG-3 [2].
In the case of `Cc1ccc(-c2cc(C(=O)Nc3nccs3)c3ccccc3n2)c(C)c1`, the concentration for half-maximal inhibition (IC50) in the test with PEG-3 [1] (setting [3]) was 32.1 µM; with PEG-3 [1] (setting [4]) it was above 100 µM. Further, the IC50 result at PEG-3 [2] was “inactive”.
For `CN(C)C=NC(=O)c1[nH]c2ccc(Cl)cc2c1-c1ccccc1`, in that order: 18 µM, 19.9 µM and 18.9 µM.
In the same order, the values of `COc1cc(NC(=O)c2c(F)c(F)c(F)c(F)c2F)c(OC)cc1Cl` are 23.7 µM, 15.9 µM and 19.8 µM.
`COc1cccc(CN(C)C(=O)C(CCSC)NS(=O)(=O)c2ccc3c(c2)OCCO3)c1OC` (stereo not drawn): the values for the half-maximal inhibitory concentration (IC50) in the test with PEG-3 [1] (setting [3]) and in the test with PEG-3 [1] (setting [4]) were 61 µM and 8.89 µM, respectively. Besides, the IC50 result on PEG-3 [2] is “inactive”.
Regarding `CCOC(=O)c1c(NC(=O)CSc2nnnn2-c2ccccc2OCC)sc2c1CC(C)(C)NC2(C)C`, the half-maximal inhibitory concentration (IC50) in the test on PEG-3 [1] (setting [3]) was found to be 19.6 µM; in the test on PEG-3 [1] (setting [4]), 39.9 µM. For the same compound, on PEG-3 [2], the IC50 result is “inactive”.
Regarding `Oc1c(Cl)cc(Cl)c2cccnc12`, the IC50 was 17.9 µM with PEG-3 [1] (setting [3]), 6.75 µM with PEG-3 [1] (setting [4]) and 12.3 µM on PEG-3 [2].
For `O=C1C(Cl)=C(Nc2ccc(O)cc2)C(=O)c2ccccc21`, in that order: 16.1 µM, 7.05 µM and 11.6 µM.
Turning to `O/N=C(\c1ccc(Cl)cc1Cl)c1ncc(C(F)(F)F)cc1Cl`, the half-maximal inhibitory concentration (IC50) in the test with PEG-3 [1] (setting [3]) came out at 32.4 µM; with PEG-3 [1] (setting [4]), 29.9 µM. Also, the IC50 result at PEG-3 [2] was “inactive”.

For the origin of these results see PubChem BioAssay AID624167 (Sanford-Burnham Center for Chemical Genomics, 2012).
